# Measured values: US8084497B2, “C-(2-phenyl-cyclohexyl)-methylamine compounds for therapy of fibromyalgia” (Gruenenthal GmbH, priority 2003, dated 2011)
# Counter-ions that a name gives are not always drawn. Marks after values point to notes of the source that are not given here.
# Assays:
# human μ-opiate receptor = molecular target: T1, human μ-opiate receptor (Homo sapiens, UniProt P35372); experiment: Affinity for the human μ-opiate receptor ([3H]-naloxone displacement, CHO-K1 membrane preparation, SPA); assay type: binding
# T1 construct: purchased Perkin Elmer, Zaventem, Belgium RB-HOM; host or cells: CHO-K1 cells (recombinant expression)
# T1 sequence (P35372 whole entry): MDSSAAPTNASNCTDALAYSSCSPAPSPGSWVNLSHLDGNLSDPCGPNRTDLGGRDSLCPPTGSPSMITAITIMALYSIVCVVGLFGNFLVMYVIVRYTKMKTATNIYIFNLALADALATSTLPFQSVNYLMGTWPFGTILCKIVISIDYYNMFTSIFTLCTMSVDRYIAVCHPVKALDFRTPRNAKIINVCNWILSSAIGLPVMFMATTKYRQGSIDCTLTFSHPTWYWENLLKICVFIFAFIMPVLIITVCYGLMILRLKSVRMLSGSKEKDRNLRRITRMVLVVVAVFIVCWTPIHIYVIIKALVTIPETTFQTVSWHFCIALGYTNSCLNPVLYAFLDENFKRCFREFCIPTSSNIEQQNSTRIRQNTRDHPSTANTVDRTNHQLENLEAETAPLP
# Protocol: Investigation of the affinity for the human μ-opiate receptor The receptor affinity for the human μ-opiate receptor is determined in a homogeneous set-up in microtitre plates. For this, dilution series of the substances to be tested are incubated with a receptor membrane preparation (15-40 μg protein/250 μl incubation batch) of CHO-K1 cells which express the human μ-opiate receptor (RB-HOM receptor membrane preparation from Perkin Elmer, Zaventem, Belgium) in the presence of 1 nmol/l of the radioactive ligand [^3H]-naloxone (NET719, Perkin Elmer, Zaventem, Belgium) and 1 mg WGA-SPA-Beads (wheat germ agglutinin SPA beads from Amersham/Pharmacia, Freiburg, Germany) in a total volume of 250 μl for 90 minutes at room temperature. 50 mmol/l Tris-HCl supplemented with 0.05% sodium azide and with 0.06% bovine serum albumin is used as the incubation buffer. 25 μmol/l naloxone are additionally added for determination of the non-specific binding. After the end of the ninety-minute incubation time, the microtitre plates are centrifuged for 20 minutes at 1,000 g and the radioactivity is measured in a […] (Microbeta-Trilux, PerkinElmer Wallac, Freiburg, Germany). The percentage displacement of the radioactive ligand from its binding to the human μ-opiate receptor is determined at a concentration of the test substances of 1 μmol/l and stated as the percentage inhibition of the specific binding. Starting from the percentage displacement by various concentrations of the test substances, IC50 inhibitory concentrations which cause a 50 percent displacement of the radioactive ligand are calculated. By conversion by means of the Cheng-Prusoff relationship, Ki values for the test substances are obtained (Cheng and Prusoff 1973).
# rats = experiment: Elevated plus maze test on rats (onset of anxiolytic actions); assay type: in vivo, rat
# Protocol: In the elevated plus maze test the actions of substances on the endogenous anxiety of rodents towards open and elevated places are determined.
# The apparatus was placed approx. 1 m above the floor and comprised four arms arranged in a cross, two opposite arms being open and two closed. […] The duration of stay and the number of entries into the open arms were evaluated. The group size was 10-15 animals. The single administration of the test substances or of the control vehicle took place 30 min before testing.
# It is reported in the literature that benzodiazepines induce an increased duration of stay and entries into the open compartment. […] The typical disadvantages of monoamine reuptake inhibitors in the therapy of anxiety patients, namely the delayed onset of action and the initially anxiogenic-like effects, can thus be followed in the elevated plus maze test on rats. The elevated plus maze test is therefore a suitable animal model for the investigation of new therapies which have the aim of accelerating the onset of action of monoamine reuptake inhibitors.
# Statistical evaluation: Anova plus post-hoc Dunnett's test (Significance level: p<0.05; *: significant versus vehicle; #: significant versus intrinsic effect of 16 mg/kg i.p. 3-(2-dimethylaminomethyl-cyclohexyl)-phenol).
# 5-HT reuptake = molecular target: T2, 5-HT reuptake (Rattus norvegicus, UniProt P31652); experiment: 5-HT reuptake inhibition in rat brain synaptosomes (medulla+pons); assay type: biochemical
# T2 construct: synaptosomes are freshly isolated from areas of the rat brain; from tissue; host or cells: P2 synaptosome fraction from the medulla+pons region of male rat brain
# T2 sequence (P31652 whole entry): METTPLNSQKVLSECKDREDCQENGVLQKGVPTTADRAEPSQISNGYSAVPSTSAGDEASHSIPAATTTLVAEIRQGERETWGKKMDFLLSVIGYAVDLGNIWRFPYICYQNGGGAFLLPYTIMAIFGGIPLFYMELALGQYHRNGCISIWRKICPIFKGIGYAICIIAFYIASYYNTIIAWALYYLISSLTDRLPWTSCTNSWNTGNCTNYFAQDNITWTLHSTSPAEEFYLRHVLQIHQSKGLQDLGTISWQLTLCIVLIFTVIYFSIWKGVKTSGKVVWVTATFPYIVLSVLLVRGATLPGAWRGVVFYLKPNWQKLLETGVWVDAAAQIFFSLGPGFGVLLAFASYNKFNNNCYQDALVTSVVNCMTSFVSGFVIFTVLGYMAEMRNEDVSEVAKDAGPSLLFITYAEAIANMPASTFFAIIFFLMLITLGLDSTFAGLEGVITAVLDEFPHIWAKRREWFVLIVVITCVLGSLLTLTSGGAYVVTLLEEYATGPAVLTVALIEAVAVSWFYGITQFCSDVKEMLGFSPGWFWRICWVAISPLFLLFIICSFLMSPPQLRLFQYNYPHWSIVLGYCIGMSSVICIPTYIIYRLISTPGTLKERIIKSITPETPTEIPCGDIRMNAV
# Source text: In order to be able to carry out these in vitro studies, synaptosomes are freshly isolated from areas of the rat brain. […] For the NA reuptake these vesicular particles are isolated from the hypothalamus, and for the 5-HT reuptake from the medulla+pons region of male rat brains.
# The IC50 values were obtained with the aid of the computer program “Figure P” (version 6.0, Biosoft, Cambridge, England). […] The computer program “Ligand” (version 4, Biosoft, England) was used to display KD values.
# [1] = 8 mg/kg i.p., single administration 30 min before testing
# [2] = 16 mg/kg i.p., single administration 30 min before testing
# [3] = 2 mg/kg i.p., single administration
# [4] = 1 mg/kg i.p., single administration
SMILES,Open arms: Duration of stay (rats; [2]),Open arms: Number of entries (rats; [2]),anxiolytic action (in words) (rats; single administration),duration of stay in the open arms (in words) (rats; single administration),number of entries into the open arms (in words) (rats; single administration),Ki (human μ-opiate receptor) [nM],Ki (5-HT reuptake) [nM],also measured
CN(C)CC1CCCCC1c1cccc(O)c1 (centres unmarked) [3-(2-Dimethylaminomethyl-cyclohexyl)-phenol],118.2* sec,8.5,significant anxiolytic actions,significant increase,clear increase,–,–,ratio between the μ-opioid component and the monoamine reuptake inhibition (in words) (human μ-opiate receptor; versus 5-HT and NA reuptake inhibition): balanced ratio; Open arms: Duration of stay (rats; [1]): 29.0 s; Open arms: Number of entries (rats; [1]): 3.2; anxiogenic-like action (in words) (rats; acute administration): In no case was an anxiogenic-like action induced
CNCC1CCCCC1c1cccc(O)c1 (centres unmarked) [3-(2-Methylaminomethyl-cyclohexyl)-phenol hydrochloride],–,–,–,–,–,870,5670,–
CN1C(=O)CN=C(c2ccccc2)c2cc(Cl)ccc21 [Diazepam],–,–,–,increase,increase,–,–,Open arms: Duration of stay (rats; [3]): 77.7* sec; Open arms: Number of entries (rats; [3]): 8.1*
COc1ccc(C(CN(C)C)C2(O)CCCCC2)cc1 (centres unmarked) [Venlafaxine],66.9 s,4.6,no anxiolytic action,–,–,–,–,"μ-Opioid receptor affinity (Ki values) (human μ-opiate receptor; [3H]-naloxone, CHO-K1 membranes): inactive"
C=CCN1CC[C@]23c4c5ccc(O)c4O[C@H]2C(=O)CC[C@@]3(O)[C@H]1C5 [Naloxone],–,–,–,–,–,–,–,Open arms: Duration of stay (rats; [4]): 28.6 s; Open arms: Number of entries (rats; [4]): 4.5
"CN(C)CC1CCCCC1c1cccc(O)c1 (centres unmarked) [3-(2-Dimethylaminomethyl-cyclohexyl)-phenol, hydrochloride]",–,–,–,–,–,140,50,–
